# According to BindingDB's records for doi:10.1016/j.bmcl.2004.09.053 (Avenida De La Industria, 2004):
# Tests used:
# Test in all cases: CDK Kinase Inhibition Assay
# [1] = target: Cyclin-dependent kinase 2/G1/S-specific cyclin-E1 (Homo sapiens, UniProt P24941)
# Experimental: (§1) In vitro CDK assay using purified enzyme, was incubated at room temperature with substrate, and test compounds in the presence of ATP/[gamma-33P]ATP. 33P incorporation was measured with a Top Count (Packard). IC50 is the inhibitor concentration which inhibits 50% of kinase activity that catalyzes the transfer of the terminal phosphate from 33P labeled ATP to the substrate.
# [2] = target: Cyclin-dependent kinase 4/G1/S-specific cyclin-D1 (Homo sapiens, UniProt P11802); details: 25 °C
# Experimental: as §1
# [3] = target: Cyclin-dependent kinase/G2/mitotic-specific cyclin- 1 (Homo sapiens, UniProt P06493); details: 25 °C
# Experimental: as §1
# Cyclin-dependent kinase/G2/mitotic-specific cyclin- 1, sequence (P06493 whole entry): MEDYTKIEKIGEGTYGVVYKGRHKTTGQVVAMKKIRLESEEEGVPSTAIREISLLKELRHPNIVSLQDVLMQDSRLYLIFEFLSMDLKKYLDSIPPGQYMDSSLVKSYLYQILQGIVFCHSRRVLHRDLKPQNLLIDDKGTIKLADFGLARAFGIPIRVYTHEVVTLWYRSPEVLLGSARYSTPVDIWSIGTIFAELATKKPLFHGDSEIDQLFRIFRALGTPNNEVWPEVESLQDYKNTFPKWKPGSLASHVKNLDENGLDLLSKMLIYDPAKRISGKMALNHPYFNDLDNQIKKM
# Cyclin-dependent kinase/G2/mitotic-specific cyclin- 1, sequence (P14635 whole entry, further chain): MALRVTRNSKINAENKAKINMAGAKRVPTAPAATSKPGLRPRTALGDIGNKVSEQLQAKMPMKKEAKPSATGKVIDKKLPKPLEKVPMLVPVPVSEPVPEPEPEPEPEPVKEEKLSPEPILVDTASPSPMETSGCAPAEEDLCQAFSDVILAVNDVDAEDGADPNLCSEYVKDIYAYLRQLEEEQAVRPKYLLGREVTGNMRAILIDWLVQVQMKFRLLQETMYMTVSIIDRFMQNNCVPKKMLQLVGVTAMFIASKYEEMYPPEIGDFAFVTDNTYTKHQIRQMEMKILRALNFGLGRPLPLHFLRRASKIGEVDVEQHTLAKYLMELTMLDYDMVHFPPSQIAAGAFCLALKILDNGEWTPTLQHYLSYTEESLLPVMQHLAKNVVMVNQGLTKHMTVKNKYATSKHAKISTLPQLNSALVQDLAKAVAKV
# Cyclin-dependent kinase 4/G1/S-specific cyclin-D1, sequence (P11802 whole entry): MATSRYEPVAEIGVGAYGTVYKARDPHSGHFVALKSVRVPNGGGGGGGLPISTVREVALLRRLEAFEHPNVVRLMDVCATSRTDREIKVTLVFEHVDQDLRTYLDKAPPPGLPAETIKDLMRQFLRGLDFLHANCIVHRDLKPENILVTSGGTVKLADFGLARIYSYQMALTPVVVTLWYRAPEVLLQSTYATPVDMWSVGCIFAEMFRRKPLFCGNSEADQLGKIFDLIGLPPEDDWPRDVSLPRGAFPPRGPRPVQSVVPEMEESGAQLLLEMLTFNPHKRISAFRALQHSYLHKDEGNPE
# Cyclin-dependent kinase 4/G1/S-specific cyclin-D1, sequence (P24385 whole entry, further chain): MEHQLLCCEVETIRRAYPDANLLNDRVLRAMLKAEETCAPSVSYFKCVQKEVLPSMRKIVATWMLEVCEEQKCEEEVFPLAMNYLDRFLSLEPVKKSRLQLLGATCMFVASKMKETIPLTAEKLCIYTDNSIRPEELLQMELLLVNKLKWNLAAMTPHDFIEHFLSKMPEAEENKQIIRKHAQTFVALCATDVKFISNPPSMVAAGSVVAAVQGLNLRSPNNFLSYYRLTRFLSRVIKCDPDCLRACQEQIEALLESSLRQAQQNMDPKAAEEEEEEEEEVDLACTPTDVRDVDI
IC50 ([1]; 25 °C) [nM],Compound,IC50 [2] [nM],"IC50 ([1]; pH 7, 22 °C) [nM]",IC50 [3] [nM]
984,"CCN(CC)CCOc1cc(F)c(C(=O)c2c(N)nc3ccc(C(=O)c4c(Cl)cccc4Cl)cn23)c(F)c1 [6-[(2,6-dichlorophenyl)carbonyl]-3-({4-[2-(diethylamino)ethoxy]-2,6-difluorophenyl}carbonyl)imidazo[1,2-a]pyridin-2-amine]",–,–,–
–,"N#C/C=C(\c1ccc2nc(N)c(C(=O)c3c(F)cccc3F)n2c1)c1c(F)cccc1F [(2E)-3-{2-amino-3-[(2,6-difluorophenyl)carbonyl]imidazo[1,2-a]pyridin-6-yl}-3-(2,6-difluorophenyl)prop-2-enenitrile]",1550,160,53
896,"N#C/C=C(/c1ccc2nc(N)c(C(=O)c3c(F)cccc3F)n2c1)c1c(F)cccc1F [(2Z)-3-{2-amino-3-[(2,6-difluorophenyl)carbonyl]imidazo[1,2-a]pyridin-6-yl}-3-(2,6-difluorophenyl)prop-2-enenitrile]",–,–,–
